Test results taken from paper PMC8079033, “Design, synthesis, anticancer evaluation, and molecular modelling studies of novel tolmetin derivatives as potential VEGFR-2 inhibitors and apoptosis inducers” (Journal of Enzyme Inhibition and Medicinal Chemistry, 2021).

What was measured:
[1] = test system: BT-5; assay: NCI 60-cell line one-dose antiproliferative screen (SRB); format: cell-based; conditions: Homo sapiens, read-out: growth inhibition % (GI%)
Summary of the method: (§1)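 One concentration (10 µM) is tested over a 48 h incubation. Growth is measured by protein staining with sulforhodamine B and is normalised to both the no-compound control and the cell number at compound addition.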

[2] = test system: Colo 205; assay: as above; format: cell-based; conditions: Homo sapiens, read-out: growth inhibition % (GI%)
Summary of the method: as §1

[3] = test system: DU-145; assay: as above; format: cell-based; conditions: Homo sapiens, read-out: growth inhibition % (GI%)
Summary of the method: as §1

[4] = test system: HCC-2998; assay: as above; format: cell-based; conditions: Homo sapiens, read-out: growth inhibition % (GI%)
Summary of the method: as §1

[5] = test system: HL-60 (TB); assay: as above; format: cell-based; conditions: Homo sapiens, read-out: growth inhibition % (GI%)
Summary of the method: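 Sulforhodamine B assay, 515 nm: percent growth relative to untreated control and time-zero cell number after a 48 h incubation with 10 µM compound at 37 °C, reported as GI%.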

[6] = test system: HOP-92; assay: as above; format: cell-based; conditions: Homo sapiens, read-out: growth inhibition % (GI%)
Summary of the method: as §1

[7] = test system: HS 578 T; assay: as above; format: cell-based; conditions: Homo sapiens, read-out: growth inhibition % (GI%)
Summary of the method: as §1

[8] = test system: HT29; assay: as above; format: cell-based; conditions: Homo sapiens, HT-29, read-out: growth inhibition % (GI%)
Summary of the method: as §1

[9] = test system: KM12; assay: as above; format: cell-based; conditions: Homo sapiens, read-out: growth inhibition % (GI%)
Summary of the method: as §1

[10] = test system: MALME-3M; assay: as above; format: cell-based; conditions: Homo sapiens, read-out: growth inhibition % (GI%)
Summary of the method: as §1

[11] = test system: MDA-MB-435; assay: as above; format: cell-based; conditions: Homo sapiens, read-out: growth inhibition % (GI%)
Summary of the method: as §1

[12] = test system: NCI-H226; assay: as above; format: cell-based; conditions: Homo sapiens, read-out: growth inhibition % (GI%)
Summary of the method: as §1

[13] = test system: NCI-H322M; assay: as above; format: cell-based; conditions: Homo sapiens, read-out: growth inhibition % (GI%)
Summary of the method: as §1

[14] = test system: OVCAR-3; assay: as above; format: cell-based; conditions: Homo sapiens, read-out: growth inhibition % (GI%)
Summary of the method: as §1

[15] = test system: OVCAR-4; assay: as above; format: cell-based; conditions: Homo sapiens, read-out: growth inhibition % (GI%)
Summary of the method: as §1

[16] = test system: RPMI-8226; assay: as above; format: cell-based; conditions: Homo sapiens, read-out: growth inhibition % (GI%)
Summary of the method: as §1

[17] = test system: RXF 393; assay: as above; format: cell-based; conditions: Homo sapiens, read-out: growth inhibition % (GI%)
Summary of the method: as §1

[18] = test system: SF-268; assay: as above; format: cell-based; conditions: Homo sapiens, read-out: growth inhibition % (GI%)
Summary of the method: as §1

[19] = test system: SF-295; assay: as above; format: cell-based; conditions: Homo sapiens, read-out: growth inhibition % (GI%)
Summary of the method: as §1

[20] = test system: SK-MEL-28; assay: as above; format: cell-based; conditions: Homo sapiens, read-out: growth inhibition % (GI%)
Summary of the method: as §1

[21] = test system: SK-MEL-2; assay: as above; format: cell-based; conditions: Homo sapiens, read-out: growth inhibition % (GI%)
Summary of the method: as §1

[22] = test system: SK-OV-3; assay: as above; format: cell-based; conditions: Homo sapiens, read-out: growth inhibition % (GI%)
Summary of the method: as §1

[23] = test system: SR; assay: as above; format: cell-based; conditions: Homo sapiens, read-out: growth inhibition % (GI%)
Summary of the method: as §1

[24] = test system: SW-620; assay: as above; format: cell-based; conditions: Homo sapiens, read-out: growth inhibition % (GI%)
Summary of the method: as §1

[25] = test system: TK-10; assay: as above; format: cell-based; conditions: Homo sapiens, read-out: growth inhibition % (GI%)
Summary of the method: as §1

[26] = test system: UACC-257; assay: as above; format: cell-based; conditions: Homo sapiens, read-out: growth inhibition % (GI%)
Summary of the method: as §1

[27] = test system: UACC-62; assay: as above; format: cell-based; conditions: Homo sapiens, read-out: growth inhibition % (GI%)
Summary of the method: as §1

[28] = test system: panel of 60 tumour cell lines; assay: NCI 60-cell line one-dose screen, summary over the panel; format: cell-based, human; conditions: Homo sapiens, 60 cell, listed leukaemia, lung, colon, CNS, melanoma, ovarian, renal, breast lines, read-out: GI% range, potent growth inhibitory effects on the cell lines listed in the text
Method: Anticancer activity screening of the newly synthesised compounds was measured in vitro utilising 60 different human tumour cell lines provided by US National Cancer Institute according to previously reported standard procedure[41–43] as follows: Cells are inoculated into 96-well microtiter plates in 100 ml. After cell inoculation, the microtiter plates are incubated at 37 °C, 5% CO2, 95% air, and 100% relative humidity for 24 h prior to addition of experimental compounds. After 24 h, two plates of each cell line are fixed in situ with TCA, to represent a measurement of the cell population for each cell line at the time of compound addition (Tz). Experimental compounds are solubilised in dimethyl sulfoxide at 400-fold the desired final maximum test concentration and stored frozen prior to use. At the time of compound addition, an aliquot of frozen concentrate is thawed and diluted to twice the desired final maximum test concentration with a complete medium containing […] gentamicin. Aliquots of […] of the compounds dilutions are added to the appropriate microtiter wells already containing 100 ml of medium, resulting in the required final compound concentration. Following compound addition, the plates are incubated for an additional 48 h at 37 °C, 5% CO2, 95% air, and 100% relative humidity. […] The bound stain is subsequently solubilised with a 10 mM trizma base, and the absorbance is read on an automated plate reader at a wavelength of 515 nm. […] Using the absorbance measurements [time zero, (Tz), control growth, (C), and test growth in the presence of compound (Ti)], the percentage growth is calculated for each compound. […]
Fifteen newly synthesised compounds were tested for their in vitro antiproliferative activity by the National Cancer Institute (NCI), Maryland, USA[50], under the Developmental Therapeutic Program (DTP)[41]^,[43]^,[51]^,[52]. The tested compounds were evaluated at a concentration of 10 µM on a panel of 60 tumour cell lines representing leukaemia and non-small cell lung, colon, CNS, melanoma, ovarian, renal, prostate, and breast cancers. […]

[29] = test system: leukaemia HL-60 (TB) cell line; assay: MTT cytotoxicity assay; format: cell-based; conditions: Homo sapiens, mean ± SD of three experiments
[30] = test system: colon (HCT-15) cell line; assay: MTT cytotoxicity assay; format: cell-based; conditions: Homo sapiens, mean ± SD of three experiments
[31] = test system: renal (UO-31) cell line; assay: MTT cytotoxicity assay; format: cell-based; conditions: Homo sapiens, mean ± SD of three experiments

Structure (SMILES)	inhibition at 10 µM [1]	inhibition at 10 µM [3]	inhibition at 10 µM [5]	inhibition at 10 µM [6]	inhibition at 10 µM [7]	inhibition at 10 µM [9]	inhibition at 10 µM [10]	inhibition at 10 µM [11]	inhibition at 10 µM [12]	inhibition at 10 µM [13]	inhibition at 10 µM [15]	inhibition at 10 µM [16]	inhibition at 10 µM [17]	inhibition at 10 µM [18]	inhibition at 10 µM [19]	inhibition at 10 µM [21]	inhibition at 10 µM [22]	inhibition at 10 µM [24]	inhibition at 10 µM [27]	melting point	other results
Cc1ccc(C(=O)c2ccc(CC(=O)NN=Cc3cccc(O)c3O)n2C)cc1 [Compound 5b, N′-(2,3-Dihydroxybenzylidene)-2–(1-methyl-5–(4-methylbenzoyl)-1H-pyrrol-2-yl) acetohydrazide]	54.3%	50.7%	95.9%	43.8%	12.6%	55.8%	41.3%	38.9%	31%	45.6%	70.9%	64.9%	70.3%	62.8%	16.5%	< 10%	32%	65.8%	60.9%		inhibition at 10 µM [2]: 37%; inhibition at 10 µM [4]: 29.4%; inhibition at 10 µM [8]: 13.3%; inhibition at 10 µM [14]: 76.5%; inhibition at 10 µM [20]: 20%; inhibition at 10 µM [23]: 91.1%; inhibition at 10 µM [25]: 61.2%; inhibition at 10 µM [26]: 10.3%; inhibition at 10 µM [28]: 60.9 to 95.9%; IC50 [29]: 10.3 ± 0.55 µM; IC50 [30]: 6.62 ± 0.35 µM; IC50 [31]: 7.69 ± 0.41 µM
Cc1ccc(C(=O)c2ccc(CC(=O)NN3C(=O)C=CC3=O)n2C)cc1 [Compound 7b, N-(2,5-Dioxo-2,5-dihydro-1H-pyrrol-1-yl)-2–(1-methyl-5–(4-methylbenzoyl)-1H-pyrrol-2-yl)acetamide]	< 10%	< 10%	10.6%		< 10%	< 10%		< 10%	22.1%	< 10%	< 10%	< 10%	13%	12.3%	< 10%	< 10%	< 10%	< 10%	< 10%	193 to 195 °C	
Cc1ccc(C(=O)c2ccc(CC(=O)NN3C(=O)CCC3=O)n2C)cc1 [Compound 7a, N-(2,5-Dioxopyrrolidin-1-yl)-2–(1-methyl-5–(4-methylbenzoyl)-1H-pyrrol-2-yl) acetamide]	< 10%		< 10%	19.2%				< 10%	22.6%	< 10%	31.9%	20.2%	< 10%	11.9%	< 10%	< 10%	14%	< 10%	12.4%	> 300 °C	inhibition at 10 µM [8]: < 10%
Cc1ccc(C(=O)c2ccc(CC(=O)NN=Cc3ccccc3O)n2C)cc1 [Compound 5a, N′-(2-Hydroxybenzylidene)-2–(1-methyl-5–(4-methylbenzoyl)-1H-pyrrol-2-yl)aceto hydrazide]	14.9%	10.4%	13%	< 10%		19.6%	< 10%	16.8%	< 10%	21.1%	39.8%	18.6%	10.4%	29.1%	< 10%	10.4%	< 10%	10.4%	12.8%	222 to 224 °C	inhibition at 10 µM [4]: < 10%; inhibition at 10 µM [14]: 19.7%; inhibition at 10 µM [20]: 15.7%; inhibition at 10 µM [23]: 43.8%; inhibition at 10 µM [25]: 14.9%; inhibition at 10 µM [26]: < 10%
Cc1ccc(C(=O)c2ccc(CC(=O)NNC(=O)Nc3ccc(Cl)c(C(F)(F)F)c3)n2C)cc1 [Compound 8c, N-(4-Chloro-3-(trifluoromethyl)phenyl)-2–(2-(1-methyl-5–(4-methylbenzoyl)-1H-pyrrol-2-yl)acetyl)hydrazinecarboxamide]	11.4%	< 10%		13.5%	11.9%	< 10%	< 10%	20.7%	< 10%	14.4%		11.3%	< 10%	26.3%	< 10%			10.6%	19.7%	171 to 173 °C	inhibition at 10 µM [2]: < 10%; inhibition at 10 µM [8]: < 10%; inhibition at 10 µM [23]: < 10%; inhibition at 10 µM [26]: 22.9%
Cc1ccc(C(=O)c2ccc(CC(=O)NN=Cc3c[nH]c4ccccc34)n2C)cc1 [Compound 5f, N′-((1H-Indol-3-yl)methylene)-2–(1-methyl-5–(4-methylbenzoyl)-1H-pyrrol-2-yl) acetohydrazide]	< 10%		27%	< 10%	< 10%		19.3%	< 10%	< 10%	< 10%	11.1%	15.9%	< 10%	10.5%	< 10%			< 10%	12.2%	168 to 170 °C	inhibition at 10 µM [14]: < 10%; inhibition at 10 µM [23]: 11.2%
